The source of these data is patent publication US20260226048A1, “MULTI-CYCLIC IRAK AND FLT3 INHIBITING COMPOUNDS AND USES THEREOF” (CHILDREN'S HOSPITAL MEDICAL CENTER, priority 2023, published 2026).

One test addresses T1, FLT3 (Homo sapiens, UniProt P36888).
T1 sequence (P36888 27-993): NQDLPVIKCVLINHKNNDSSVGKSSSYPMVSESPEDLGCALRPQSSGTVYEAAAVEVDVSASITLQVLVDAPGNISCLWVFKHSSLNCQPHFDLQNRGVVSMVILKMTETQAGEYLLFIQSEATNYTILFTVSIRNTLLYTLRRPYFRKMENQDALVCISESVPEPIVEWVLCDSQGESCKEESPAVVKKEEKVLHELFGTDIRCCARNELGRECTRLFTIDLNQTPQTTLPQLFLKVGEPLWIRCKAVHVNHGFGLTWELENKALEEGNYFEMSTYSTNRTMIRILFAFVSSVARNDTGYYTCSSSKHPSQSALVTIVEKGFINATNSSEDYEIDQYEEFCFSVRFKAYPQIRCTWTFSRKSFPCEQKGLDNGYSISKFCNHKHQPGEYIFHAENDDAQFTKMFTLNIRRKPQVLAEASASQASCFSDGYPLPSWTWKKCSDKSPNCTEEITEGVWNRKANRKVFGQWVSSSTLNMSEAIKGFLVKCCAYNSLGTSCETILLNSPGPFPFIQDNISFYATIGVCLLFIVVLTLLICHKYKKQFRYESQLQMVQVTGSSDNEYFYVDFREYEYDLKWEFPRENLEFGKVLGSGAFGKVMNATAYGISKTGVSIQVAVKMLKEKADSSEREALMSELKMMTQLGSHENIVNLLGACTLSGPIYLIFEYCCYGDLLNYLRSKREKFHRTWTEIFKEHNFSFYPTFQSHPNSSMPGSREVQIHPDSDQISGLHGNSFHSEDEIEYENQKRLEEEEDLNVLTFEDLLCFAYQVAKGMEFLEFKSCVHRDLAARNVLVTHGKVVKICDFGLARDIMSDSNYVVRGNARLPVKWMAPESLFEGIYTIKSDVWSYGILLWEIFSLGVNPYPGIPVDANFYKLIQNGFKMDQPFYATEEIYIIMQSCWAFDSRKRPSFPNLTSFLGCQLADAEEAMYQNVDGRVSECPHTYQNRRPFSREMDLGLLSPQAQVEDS
The test is described as follows: RBC HotSpot Kinase Assay, FLT3. The format is biochemical. Further details: purchased Reaction Biology (RBC HotSpot). Particulars: isolated kinase enzyme, 33P-ATP, P81 filter-binding. An excerpt: (§1) This assay uses the isolated kinase enzyme. […] Unlike kinase binding assays that measure competition for ATP, the HotSpot Kinase Assay is a functional assay that measures catalytic activity; as such it measures relative functional potency regardless of the mechanism of enzyme inhibition. This assay uses the form of the various enzymes that are easiest to express, which may not necessarily be the form of the enzyme that exist in the cell. (Sometimes the carboxy terminus has been truncated to aid in expression, or, if it is a receptor kinase, the enzyme itself is isolated from the other parts of the receptor that are involved in regulating kinase activity.)
(§2) The reagent used was as follows: Base Reaction buffer; 20 mM Hepes (pH 7.5), 10 mM MgCl2, 1 mM EGTA, 0.01% Brij35, 0.02 mg/ml BSA, 0.1 mM Na3VO4, 2 mM DTT, 1% DMSO. Required cofactors were added individually to each kinase reaction.

A further test concerns the target T2, IRAK4 (Homo sapiens, UniProt Q9NWZ3).
T2 sequence (Q9NWZ3 1-460): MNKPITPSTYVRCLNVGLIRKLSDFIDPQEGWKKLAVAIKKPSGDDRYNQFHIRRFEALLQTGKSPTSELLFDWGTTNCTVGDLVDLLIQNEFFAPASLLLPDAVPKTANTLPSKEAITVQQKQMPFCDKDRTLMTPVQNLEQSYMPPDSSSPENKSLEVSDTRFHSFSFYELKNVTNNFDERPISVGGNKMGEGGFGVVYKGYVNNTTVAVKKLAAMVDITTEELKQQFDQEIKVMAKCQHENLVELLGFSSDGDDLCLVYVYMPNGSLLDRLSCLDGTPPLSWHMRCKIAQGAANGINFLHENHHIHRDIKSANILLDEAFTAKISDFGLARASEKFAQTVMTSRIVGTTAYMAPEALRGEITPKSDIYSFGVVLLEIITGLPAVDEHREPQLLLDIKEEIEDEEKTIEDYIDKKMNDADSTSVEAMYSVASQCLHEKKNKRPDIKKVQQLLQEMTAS
The test can be described thus: RBC HotSpot Kinase Assay, IRAK4. The format is biochemical. Conditions: isolated kinase enzyme, 33P-ATP, P81 filter-binding. Further details: purchased Reaction Biology (RBC HotSpot).
Description: as §1, with “enzyme. This assay is very useful for determining competition of the inhibitor for ATP and/or substrates and for measuring the kinetics of enzyme inhibition.” for “enzyme.”
as §2
The reaction procedure was as follows: • 1) Substrates were prepared in freshly prepared Reaction Buffer. • 2) Any required cofactors were delivered to the substrate solution above. • 3) Kinase was delivered into the substrate solution and gently mixed. • 4) Compounds were delivered in 1000A DM into the kinase reaction mixture by Acoustic technology (Echo550; nanoliter range), followed by incubation for 20 min at room temp. • 5) 33P-ATP was delivered into the reaction mixture to initiate the reaction. • 6) The mixture was incubated for 2 hours at room temperature. • 7) Kinase activity was detected by P81 filter-binding method.

For a further test, the target named is T3, IRAK1 (Homo sapiens, UniProt P51617).
T3 construct: purchased Reaction Biology (RBC HotSpot)
T3 sequence (P51617 whole entry): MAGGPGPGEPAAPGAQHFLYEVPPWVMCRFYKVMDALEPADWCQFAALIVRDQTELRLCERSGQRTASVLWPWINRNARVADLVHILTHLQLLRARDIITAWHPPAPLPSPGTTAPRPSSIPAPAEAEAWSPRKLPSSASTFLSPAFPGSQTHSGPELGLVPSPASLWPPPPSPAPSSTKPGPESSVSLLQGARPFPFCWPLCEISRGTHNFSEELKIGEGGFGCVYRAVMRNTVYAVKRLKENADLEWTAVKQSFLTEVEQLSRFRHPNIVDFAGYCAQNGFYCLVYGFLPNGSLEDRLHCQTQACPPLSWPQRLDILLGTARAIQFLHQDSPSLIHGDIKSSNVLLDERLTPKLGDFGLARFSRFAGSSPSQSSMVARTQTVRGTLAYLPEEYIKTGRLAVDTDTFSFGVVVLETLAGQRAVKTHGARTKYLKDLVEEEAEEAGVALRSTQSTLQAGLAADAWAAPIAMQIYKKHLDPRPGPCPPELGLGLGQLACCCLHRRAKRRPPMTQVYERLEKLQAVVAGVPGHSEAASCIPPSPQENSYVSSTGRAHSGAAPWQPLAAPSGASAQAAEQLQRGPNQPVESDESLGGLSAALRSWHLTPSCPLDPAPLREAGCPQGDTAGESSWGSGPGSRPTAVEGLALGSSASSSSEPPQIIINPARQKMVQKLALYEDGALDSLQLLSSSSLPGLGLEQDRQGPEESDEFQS
The test can be described thus: RBC HotSpot Kinase Assay, IRAK1. The format is biochemical. Particulars: isolated kinase enzyme, 33P-ATP, P81 filter-binding.
Description: as §1, §2

For another test, the system named is MOLM14 D835Y cells. The test is described as follows: MOLM14 D835Y cell viability assay (Cell Titer Glo). Format: cell-based. Conditions: Homo sapiens, MOLM-14, 48 h, cell viability, Cell Titer Glo, 48 hours; read-out: MOLM14 D835Y IC50. Here is the method:
Both cell lines have activated FLT3 receptors, each of which carry additional resistance mutations in the kinase domain (D835Y and F691L, respectively).
For viability/cytotoxicity assessments, cells were seeded into 1536-well white polystyrene tissue culture-treated Greiner plates using a Multidrop Combi dispenser (ThermoFisher), in final volume 5 μL of growth media per well, at a density of 1000 cells per well. […] Plates were incubated for 48 hours at standard incubator conditions covered by a stainless steel gasketed lid to prevent evaporation. 48 hours post compound addition, 3 μL of Cell Titer Glo (Promega) were added to each well and plates were incubated at room temperature for 15 minutes with the stainless-steel lid in place. Luminescence readings were taken using a Viewlux imager (PerkinElmer) with a 2 second exposure time per plate.
For orientation: In ATP-based viability assays light output follows the ATP content of the culture.

What is called IC50 is the concentration that gives 50% inhibition. In the case of `FC(F)COc1cc2ncc(-c3ccnc(N[C@H]4CNC[C@@H]4F)n3)n2nc1C1CC1` [Compound 5a, 4-(6-cyclopropyl-7-(2,2-difluoroethoxy)imidazo[1,2-b]pyridazin-3-yl)-N-((3S,4S)-4-fluoropyrrolidin-3-yl)pyrimidin-2-amine], the half-maximal inhibitory concentration (IC50) is < 0.5 nM on FLT3, 0.9 nM on IRAK4, 29 nM at IRAK1 and 29 nM in the test with MOLM14 D835Y cells.

Consider `FC(F)COc1cc2ncc(-c3ccnc(N[C@@H]4CCCNC4)n3)n2nc1C1CC1` [Compound 6a, (R)-4-(6-cyclopropyl-7-(2,2-difluoroethoxy)imidazo[1,2-b]pyridazin-3-yl)-N-(piperidin-3-yl)pyrimidin-2-amine], for which the IC50 on FLT3 is < 0.5 nM; on IRAK4 it was 3 nM; on IRAK1, 133 nM; in the test on MOLM14 D835Y cells it was 9 nM.

`FC(F)COc1cc2ncc(-c3cncc(N[C@H]4CNC[C@@H]4F)n3)n2nc1C1CC1` [Compound 8a, 6-(6-cyclopropyl-7-(2,2-difluoroethoxy)imidazo[1,2-b]pyridazin-3-yl)-N-((3S,4S)-4-fluoropyrrolidin-3-yl)pyrazin-2-amine]: the IC50 on FLT3 was < 0.5 nM; at IRAK4, 2 nM; on IRAK1, 34 nM; in the test on MOLM14 D835Y cells, 91 nM.

For `FC(F)COc1cc2ncc(-c3cncc(N[C@@H]4CCCNC4)n3)n2nc1C1CC1` [Compound 9a, (R)-6-(6-cyclopropyl-7-(2,2-difluoroethoxy)imidazo[1,2-b]pyridazin-3-yl)-N-(piperidin-3-yl)pyrazin-2-amine], the IC50 is < 0.5 nM at FLT3, 11 nM on IRAK4, 199 nM at IRAK1 and 41 nM in the test with MOLM14 D835Y cells.

For `F[C@H]1CNC[C@@H]1Nc1nccc(-c2cnc3cc(OC4CC4)c(C4CC4)nn23)n1` [Compound 10a, 4-(7-cyclopropoxy-6-cyclopropylimidazo[1,2-b]pyridazin-3-yl)-N-((3S,4S)-4-fluoropyrrolidin-3-yl)pyrimidin-2-amine], the IC50 at FLT3 is < 0.5 nM; at IRAK4 it was 3 nM; on IRAK1 it was 26 nM; in the test on MOLM14 D835Y cells, 91 nM.

Turning to `COc1cc2ncc(-c3ccnc(N[C@H]4CNC[C@@H]4F)n3)n2nc1N1CC(F)(F)C1` [Compound 16a, 4-(6-(3,3-difluoroazetidin-1-yl)-7-methoxyimidazo[1,2-b]pyridazin-3-yl)-N-((3S,4S)-4-fluoropyrrolidin-3-yl)pyrimidin-2-amine], the IC50 was < 0.5 nM at FLT3, 8 nM at IRAK4, 245 nM at IRAK1 and 182 nM with MOLM14 D835Y cells.

As for `COc1cc2ncc(-c3ccnc(N[C@@H]4CCCNC4)n3)n2nc1N1CC(F)(F)C1` [Compound 17a, (R)-4-(6-(3,3-difluoroazetidin-1-yl)-7-methoxyimidazo[1,2-b]pyridazin-3-yl)-N-(piperidin-3-yl)pyrimidin-2-amine], the IC50 stood at 4 nM on FLT3, 215 nM at IRAK4, 1420 nM at IRAK1 and 182 nM with MOLM14 D835Y cells.

As for `COc1cc2ncc(-c3ccnc(N[C@H]4CNCC[C@@H]4F)n3)n2nc1N1CC(F)(F)C1` [Compound 18a, 4-(6-(3,3-difluoroazetidin-1-yl)-7-methoxyimidazo[1,2-b]pyridazin-3-yl)-N-((3S,4S)-4-fluoropiperidin-3-yl)pyrimidin-2-amine], the IC50 at FLT3 was < 0.5 nM; on IRAK4, 15 nM; on IRAK1, 226 nM; with MOLM14 D835Y cells, 51 nM.

As for `COc1cc2ncc(-c3ccnc(N[C@H]4CNC[C@@H]4F)n3)n2nc1C1CC(F)(F)C1` [Compound 20a, 4-(6-(3,3-difluorocyclobutyl)-7-methoxyimidazo[1,2-b]pyridazin-3-yl)-N-((3S,4S)-4-fluoropyrrolidin-3-yl)pyrimidin-2-amine], the IC50 on FLT3 came out at 0.7 nM; at IRAK4, 12 nM; on IRAK1 it was 170 nM; in the test with MOLM14 D835Y cells, 182 nM.

On to `COc1cc2ncc(-c3ccnc(N[C@@H]4CCCNC4)n3)n2nc1C1CC(F)(F)C1` [Compound 21a, (R)-4-(6-(3,3-difluorocyclobutyl)-7-methoxyimidazo[1,2-b]pyridazin-3-yl)-N-(piperidin-3-yl)pyrimidin-2-amine], for which the IC50 on FLT3 was < 0.5 nM; on IRAK4, 81 nM; on IRAK1 it was 236 nM; with MOLM14 D835Y cells, 102 nM.

Turning to `COc1cc2ncc(-c3ccnc(N[C@H]4CNCC[C@@H]4F)n3)n2nc1C(C)(C)O` [Compound 40a, 2-(3-(2-(((3S,4S)-4-fluoropiperidin-3-yl)amino)pyrimidin-4-yl)-7-methoxyimidazo[1,2-b]pyridazin-6-yl)propan-2-ol], the IC50 on FLT3 worked out at 3 nM; on IRAK4, 76 nM; on IRAK1, 1130 nM; in the test on MOLM14 D835Y cells, 115 nM.

In the case of `COc1cc2ncc(-c3ccnc(N[C@H]4CNC[C@@H]4F)n3)n2nc1C(C)(C)O` [Compound 41a, 2-(3-(2-(((3S,4S)-4-fluoropyrrolidin-3-yl)amino)pyrimidin-4-yl)-7-methoxyimidazo[1,2-b]pyridazin-6-yl)propan-2-ol], the IC50 at FLT3 came out at 1 nM; on IRAK4, 36 nM; at IRAK1, 1590 nM; with MOLM14 D835Y cells, 289 nM.

Regarding `COc1cc2ncc(-c3ccnc(N[C@@H]4CCCNC4)n3)n2nc1C(C)(C)O` [Compound 42a, (R)-2-(7-methoxy-3-(2-(piperidin-3-ylamino)pyrimidin-4-yl)imidazo[1,2-b]pyridazin-6-yl)propan-2-ol], the IC50 amounted to 10 nM at FLT3, 496 nM at IRAK4, 3250 nM on IRAK1 and 363 nM in the test on MOLM14 D835Y cells.
